Measured values as given in ChEMBL document CHEMBL3745689, “Indomethacin derivatives as tubulin stabilizers to inhibit cancer cell proliferation” (Bioorg Med Chem, 2016).
Each block holds one molecule with its values, some of them ahead of it. Calls of active or inactive are those of the source. No cut-off for these calls is given here.

Key:
NCI-H292 = assay: Cytotoxicity against human NCI-H292 cells after 72 hrs by MTT assay; assay type: functional, cell-based; conditions: NCI-H292, 72 h
HT-29 = assay: Cytotoxicity against human HT-29 cells after 72 hrs by MTT assay; assay type: functional, cell-based; conditions: HT-29, 72 h
[1] = Cytotoxicity against human PC3 cells after 72 hrs by MTT assay; assay type: functional, cell-based; conditions: PC-3, 72 h
[2] = Cytotoxicity against human MDA468 cells after 72 hrs by MTT assay; assay type: functional, cell-based; conditions: MDA-MB-468, 72 h
Tubulin (Bos taurus) [3] = target: T1, Tubulin (Bos taurus) (UniProt Q6B856+Q862L2+Q862F3); assay: Stabilization of bovine tubulin polymerization at 10 uM after 20 mins by spectrophotometer analysis; assay type: protein assay
Tubulin (Bos taurus) [4] = target: T1, Tubulin (Bos taurus); assay: Induction of bovine tubulin polymerization at 5 uM after 20 mins by spectrophotometer analysis; assay type: protein assay

SMILES: Cc1c(CC(=O)NCCN(C)C)c2cc(NC(=O)c3ccc(C#N)cc3)ccc2n1C(=O)c1ccc(Br)cc1
IC50 (NCI-H292): 20.8 µM

SMILES: CCCC(=O)Nc1ccc2c(c1)c(CC(=O)NCCN(C)C)c(C)n2S(=O)(=O)c1ccccc1
IC50 (NCI-H292): 33.5 µM

SMILES: Cc1c(CC(=O)NCCN(C)C)c2cc(NC(=O)c3ccc(Br)cc3)ccc2n1S(=O)(=O)c1ccccc1
IC50 (NCI-H292): 55.5 µM

SMILES: Cc1c(CC(=O)NCCN(C)C)c2cc(N)ccc2n1C(=O)c1ccc(Br)cc1
IC50 (NCI-H292): 31.5 µM

SMILES: COc1ccc(C(=O)Nc2ccc3c(c2)c(CC(=O)NCCN(C)C)c(C)n3C(=O)c2ccc(Br)cc2)cc1
IC50 (HT-29): 7.19 µM | IC50 [1]: 10.2 µM | IC50 [2]: 8.16 µM | IC50 (NCI-H292): 13.9 µM

SMILES: Cc1c(CC(=O)NCCN(C)C)c2cc(NC(=O)c3cccc(OCc4ccccc4)c3)ccc2n1S(=O)(=O)c1ccccc1
IC50 (NCI-H292): 19.3 µM

SMILES: CC(=O)Nc1ccc2c(c1)c(CC(=O)NCCN(C)C)c(C)n2S(=O)(=O)c1ccccc1
IC50 (NCI-H292): 113 µM

SMILES: Cc1c(CC(=O)NCCN(C)C)c2cc(NC(=O)c3ccccc3)ccc2n1C(=O)c1ccc(Br)cc1
IC50 (HT-29): 6.72 µM | IC50 [1]: 13.2 µM | IC50 [2]: 7.67 µM | IC50 (NCI-H292): 13.4 µM

SMILES: Cc1c(CC(=O)NCCN(C)C)c2cc(N)ccc2n1S(=O)(=O)c1ccccc1
IC50 (NCI-H292): 64.2 µM

Activity (Tubulin (Bos taurus) [3]): Active
SMILES: CC(=O)O[C@H]1C(=O)[C@@]2(C)[C@H]([C@H](OC(=O)c3ccccc3)[C@]3(O)C[C@H](OC(=O)[C@H](O)[C@@H](NC(=O)c4ccccc4)c4ccccc4)C(C)=C1C3(C)C)[C@]1(OC(C)=O)CO[C@@H]1C[C@@H]2O [PACLITAXEL]
IC50 (NCI-H292): 0.006 µM

SMILES: CC(=O)Nc1ccc2c(c1)c(CC(=O)NCCN(C)C)c(C)n2C(=O)c1ccc(Br)cc1
IC50 (NCI-H292): 67.6 µM

SMILES: Cc1c(CC(=O)NCCN(C)C)c2cc(NC(=O)OC(C)(C)C)ccc2n1S(=O)(=O)c1ccccc1
IC50 (NCI-H292): 25.9 µM

SMILES: Cc1c(CC(=O)NCCN(C)C)c2cc(NC(=O)OC(C)(C)C)ccc2n1C(=O)c1ccc(Br)cc1
IC50 (NCI-H292): 14.9 µM

Activity (Tubulin (Bos taurus) [3]): Active | Activity (Tubulin (Bos taurus) [4]): Active
SMILES: Cc1c(CC(=O)NCCN(C)C)c2cc(NC(=O)c3cccc(OCc4ccccc4)c3)ccc2n1C(=O)c1ccc(Br)cc1
IC50 (HT-29): 1.48 µM | IC50 [1]: 8.8 µM | IC50 [2]: 2.37 µM | IC50 (NCI-H292): 1.73 µM

SMILES: CCC(=O)Nc1ccc2c(c1)c(CC(=O)NCCN(C)C)c(C)n2C(=O)c1ccc(Br)cc1
IC50 (NCI-H292): 21.8 µM

SMILES: CCCC(=O)Nc1ccc2c(c1)c(CC(=O)NCCN(C)C)c(C)n2C(=O)c1ccc(Br)cc1
IC50 (NCI-H292): 39.6 µM

SMILES: Cc1c(CC(=O)NCCN(C)C)c2cc(NC(=O)C(C)C)ccc2n1S(=O)(=O)c1ccccc1
IC50 (NCI-H292): 30.9 µM

SMILES: CCC(=O)Nc1ccc2c(c1)c(CC(=O)NCCN(C)C)c(C)n2S(=O)(=O)c1ccccc1
IC50 (NCI-H292): 38.5 µM
